Results on 1 compound are retold here after the NIST ThermoML archive (doi:10.1021/acs.jced.5b00814).

± gives the expanded uncertainty stated by the source.

The conditions of data set [1]: Crystal; DTA.
Data set [2] can be described thus: Molar enthalpy of transition or fusion. The note with it: Crystal; DSC.

In the case of `O=C(O)/C=C/c1ccccc1` [(E)-cinnamic acid], the Normal melting temperature in data set [1] was determined as 133.00 ± 0.7 °C. The “Molar enthalpy of transition or fusion” value in data set [2] worked out at 5.31 ± 0.203 kcal/mol.
